Article PMC2784932 (Biochemistry, 2009)

How the values were obtained:
[1] = test system: FT4Y; assay: Effect of isolated Phe on self-association by turbidity; conditions: FT4Y c=3mg/ml, 46°C, data not shown
[2] = test system: T4Y; assay: as above; conditions: T4Y c=7mg/ml, 44°C, PBS, 1peptide:60F
[3] = test system: (Pro-Hyp-Gly)10; assay: DSC of triple-helical peptide in presence of Phe; conditions: PBS pH 7, peptide c=1mg/ml, molar ratio peptide:Phe = 1:200
[4] = biological target: T4, type IV collagen model peptide (POG)3QOGLOGLOG(POG)4; assay: critical concentration
[5] = biological target: T4, type IV collagen model peptide (POG)3QOGLOGLOG(POG)4; assay: dynamic light scattering

| critical concentration [4] [mg/mL] | stoichiometry N [5] | Compound | effect on self-association of FT4Y [1] | effect on self-association of T4Y [2] | effect on thermal stability of (Pro-Hyp-Gly)10 by DSC [3] |
| --- | --- | --- | --- | --- | --- |
| – | – | N[C@@H](Cc1ccccc1)C(=O)O [Phe, L-phenylalanine] | substantial delay in self-association | substantial delay in self-association | slight destabilization |
| 5.9 | 3 | T4, type IV collagen model peptide (POG)3QOGLOGLOG(POG)4 | – | – | – |
